Patent publication US6413517B1, “Identification of broadly reactive DR restricted epitopes” (Epimmune, Inc., priority 1997, dated 2002)
Where two headings read alike, the source gives them in different places. No end group written: not given here.

Assays:
DRB1*0101 (DR1) = target: T1, DRB1*0101 (DR1) (Homo sapiens, UniProt P01903+P01911, A100R/D57E/F55L/F60I/F76Y/I96L/L162R/M171V/P40L/Q125E/R42F/V115G/Y59C); assay: biochemical; format: binding
T1 construct: Epstein-Barr virus (EBV) transformed homozygous cell lines were used as sources; endogenous in cells; host or cells: LG2 (EBV-transformed homozygous B cell line)

DRB1*0401 (DR4w4) = target: T2, DRB1*0401 (DR4w4) (Homo sapiens, UniProt P01903+P01911, A100K/A169T/F76Y/I96L/K127E/L162R/M171V/N62H/P40V/Q125Y/R42H/S133A/S149N/S66Y/V115G/V209L/W38E); assay: biochemical; format: binding
T2 construct: Epstein-Barr virus (EBV) transformed homozygous cell lines were used as sources; endogenous in cells; host or cells: PREISS (EBV-transformed homozygous B cell line)

DRB1*0701 (DR7) = target: T3, DRB1*0701 (DR7) (Homo sapiens, UniProt P01903+P01911, A100R/A102G/A103Q/D57E/D86V/E43K/F76Y/K127E/L162R/M171V/P40G/Q125H/Q99D/R33Q/R42Y/R54Q/S133A/S66F/T210M/V115G/Y107V/Y59L/Y89S); assay: biochemical; format: binding
T3 construct: Epstein-Barr virus (EBV) transformed homozygous cell lines were used as sources; endogenous in cells; host or cells: PITOUT (EBV-transformed homozygous B cell line)

DRB1*1501 (DR2w2b) = target: T4, DRB1*1501 (DR2w2b) (Homo sapiens, UniProt P01903+P01911); assay: biochemical; format: binding
T4 construct: expressed in transfected cells; host or cells: transfected fibroblasts L466.1

DRB5*0101 (DR2w2a) = target: T5, DRB5*0101 (DR2w2a) (Homo sapiens, UniProt P01903+Q30154); assay: biochemical; format: binding
T5 construct: Epstein-Barr virus (EBV) transformed homozygous cell lines were used as sources; endogenous in cells; host or cells: GM3107 (EBV-transformed homozygous B cell line)

DRB1*0405 (DR4w15) = target: T6, DRB1*0405 (DR4w15) (Homo sapiens, UniProt P01903+P01911, A100R/A169T/D86S/F76Y/I96L/K127E/L162R/M171V/N62H/P40V/Q125Y/R42H/S133A/S149N/S66Y/V115G/V209L/W38E); assay: biochemical; format: binding
T6 construct: Epstein-Barr virus (EBV) transformed homozygous cell lines were used as sources; endogenous in cells; host or cells: KT3 (EBV-transformed homozygous B cell line)

DRB1*1101 (DR5w11) = target: T7, DRB1*1101 (DR5w11) (Homo sapiens, UniProt P01903+P01911, A100R/A169T/A87E/I96F/K41T/L162R/M171V/P40S/Q125H/Q178H/Q39Y/Q99D/R42S/S66Y/T262R/V115G/W38E); assay: biochemical; format: binding
T7 construct: Epstein-Barr virus (EBV) transformed homozygous cell lines were used as sources; endogenous in cells; host or cells: SWEIG (EBV-transformed homozygous B cell line)
T7 sequence (P01903 26-254, other chains not shown): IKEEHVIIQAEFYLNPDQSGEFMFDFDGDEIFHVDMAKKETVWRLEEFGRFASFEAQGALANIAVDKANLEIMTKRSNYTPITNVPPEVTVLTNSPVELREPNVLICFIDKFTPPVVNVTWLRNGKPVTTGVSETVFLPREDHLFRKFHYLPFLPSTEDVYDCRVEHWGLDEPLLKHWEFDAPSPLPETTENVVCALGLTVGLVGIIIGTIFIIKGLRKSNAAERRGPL

DRB1*1302 (DR6w19) = target: T8, DRB1*1302 (DR6w19) (Homo sapiens, UniProt P01903+P01911, A100E/A169T/K41T/L162R/M171V/P40S/Q125H/Q178H/Q39Y/Q99D/R42S/S66N/T262R/V115G/W38E/Y61H); assay: biochemical; format: binding
T8 construct: Epstein-Barr virus (EBV) transformed homozygous cell lines were used as sources; the source of Class II molecules the EBV transformed homozygous cell line H0301; endogenous in cells; host or cells: H0301 (EBV-transformed homozygous B cell line)

DRB1*0802 (DR8w2) = target: T9, DRB1*0802 (DR8w2) (Homo sapiens, UniProt P01903+P01911, A100R/A103L/A169T/F76Y/H45Y/I96F/K41T/L162R/M171V/P40S/Q125H/Q178H/Q39Y/Q99D/R218S/R42G/S66Y/V115G/W38E); assay: biochemical; format: binding
T9 construct: Epstein-Barr virus (EBV) transformed homozygous cell lines were used as sources; endogenous in cells; host or cells: OLL (EBV-transformed homozygous B cell line)

DRB1*0901 (DR9) = target: T10, DRB1*0901 (DR9) (Homo sapiens, UniProt P01903+P01911, A100R/A103E/D57H/D86V/F55Y/F60I/F76Y/I96F/K127E/L162R/M171V/P40D/Q125H/Q99R/R33Q/R42F/S133A/S66N/T210M/V115G/W38K/Y107V/Y59G/Y89S); assay: biochemical; format: binding
T10 construct: Epstein-Barr virus (EBV) transformed homozygous cell lines were used as sources; endogenous in cells

DRB1*1201 (DR5w12) = target: T11, DRB1*1201 (DR5w12) (Homo sapiens, UniProt P01903+P01911, A100R/A169T/D57E/D86V/F55L/H45Y/K41T/L162R/M171V/P40S/Q125H/Q178H/Q39Y/Q99D/R42G/S66L/T262R/V114A/V67L/W38E/Y59H/Y61H/Y89S); assay: biochemical; format: binding
T11 construct: Epstein-Barr virus (EBV) transformed homozygous cell lines were used as sources; endogenous in cells; host or cells: Herluf (EBV-transformed homozygous B cell line)

DRB1*0301 (DR3w17) [1] = target: T12, DRB1*0301 (DR3w17) (Homo sapiens, UniProt P01903+P01911, A100K/A102G/A103R/A169T/F55Y/I96L/K41T/L162R/M171V/P40S/Q125H/Q178H/Q39Y/R42S/S66N/T106N/T262R/W38E/Y61H); conditions: read-out: Binding Capacity (IC 50% nM) Other Alleles DR3
DRB1*0301 (DR3w17) [2] = target: T12, DRB1*0301 (DR3w17); assay: biochemical; conditions: Binding Capacity (IC50% nM) DR3
[3] = Binding Capacity (IC50% nM) DR1
[4] = Binding Capacity (IC 50% nM) DR1,4,7 DRB1
[5] = Binding Capacity (IC 50% nM) DR1,4,7 DR4w4
[6] = Binding Capacity (IC50% nM) DR4w4
[7] = Binding Capacity (IC50% nM) DR7
[8] = read-out: Binding Capacity (IC 50% nM) DR1,4,7 DR7
[9] = Binding Capacity (IC 50% nM) Other Alleles DR2w2b
[10] = Binding Capacity (IC50% nM) DR2w2a
[11] = read-out: Binding Capacity (IC 50% nM) Other Alleles DR2w2a
[12] = Binding Capacity (IC50% nM) DR4w15
[13] = read-out: Binding Capacity (IC 50% nM) Other Alleles DR4w15
[14] = read-out: Binding Capacity (IC 50% nM) Other Alleles DR5w11
[15] = Binding Capacity (IC50% nM) DR6w19
[16] = read-out: Binding Capacity (IC 50% nM) Other Alleles DR6w19
[17] = Binding Capacity (IC50% nM) DR8w2
[18] = read-out: Binding Capacity (IC 50% nM) Other Alleles DR8w2
[19] = Binding Capacity (IC50% nM) DR9
[20] = read-out: Binding Capacity (IC 50% nM) Other Alleles DR9
[21] = Binding Capacity (IC50% nM) DR5w12
[22] = read-out: Binding Capacity (IC 50% nM) Other Alleles DR5w12
[23] = Binding Capacity (IC50% nM) DR2w2b
[24] = read-out: Binding Capacity (IC 50% nM) Other Alleles DR2w2b
[25] = Binding Capacity (IC 50% nM) Other Alleles DR2w2a
[26] = Binding Capacity (IC 50% nM) Other Alleles DR4w15
[27] = Binding Capacity (IC50% nM) DR5w11
[28] = Binding Capacity (IC 50% nM) Other Alleles DR5w11
[29] = Binding Capacity (IC 50% nM) Other Alleles DR8w2
[30] = Binding Capacity (IC 50% nM) DR1,4,7 DR7
[31] = Binding Capacity (IC 50% nM) Other Alleles DR9

Row | Molecule | IC50 (DRB1*0101 (DR1); [3]) [nM] | IC50 (DRB1*0101 (DR1); [4]) [nM] | IC50 (DRB1*0401 (DR4w4); [5]) [nM] | IC50 (DRB1*0401 (DR4w4); [6]) [nM] | IC50 (DRB1*0701 (DR7); [7]) [nM] | IC50 (DRB1*0701 (DR7); [8]) [nM] | IC50 (DRB5*0101 (DR2w2a); [10]) [nM] | IC50 (DRB1*0405 (DR4w15); [12]) [nM] | IC50 (DRB1*1101 (DR5w11); [14]) [nM] | IC50 (DRB1*1302 (DR6w19); [15]) [nM] | IC50 (DRB1*1302 (DR6w19); [16]) [nM] | IC50 (DRB1*0802 (DR8w2); [17]) [nM] | IC50 (DRB1*0802 (DR8w2); [18]) [nM] | IC50 (DRB1*0901 (DR9); [19]) [nM] | IC50 (DRB1*0901 (DR9); [20]) [nM] | IC50 (DRB1*1201 (DR5w12); [21]) [nM] | IC50 (DRB1*1201 (DR5w12); [22]) [nM] | IC50 (DRB1*0301 (DR3w17) [1]) [nM] | IC50 (DRB1*0301 (DR3w17) [2]) [nM] | IC50 (DRB1*1501 (DR2w2b); [23]) [nM] | also measured
1 | LAAIIFLFGPPTALRS [Peptide 1136.28] | 0.23 | < 1000 | < 1000 | 849 | 3620 | > 1000 | 1480 | 6670 | > 1000 | 3180 | > 1000 | 7540 | > 1000 | > 10000 | > 1000 | 4480 | > 1000 | > 1000 | > 10000 | – | IC50 (DRB1*1501 (DR2w2b); [9]): < 1000 nM; IC50 (DRB5*0101 (DR2w2a); [11]): > 1000 nM; IC50 (DRB1*0405 (DR4w15); [13]): > 1000 nM
2 | LFHYYFLSEKAPGSTV [Peptide 1136.04] | 24 | < 1000 | < 1000 | 20 | 3330 | > 1000 | – | 563 | – | > 10000 | > 1000 | 55 | – | 2880 | > 1000 | > 10000 | > 1000 | > 1000 | > 10000 | 1260 | IC50 (DRB1*1501 (DR2w2b); [24]): > 1000 nM; IC50 (DRB5*0101 (DR2w2a); [25]): < 1000 nM; IC50 (DRB1*0405 (DR4w15); [26]): < 1000 nM; IC50 (DRB1*1101 (DR5w11); [27]): 69 nM; IC50 (DRB1*1101 (DR5w11); [28]): < 1000 nM; IC50 (DRB1*0802 (DR8w2); [29]): < 1000 nM
3 | GPPTALRSFGFAFGYM [Peptide 1136.29] | 32 | < 1000 | – | 4330 | – | – | 468 | 745 | > 1000 | > 10000 | > 1000 | 2970 | > 1000 | 183 | – | 1000 | – | > 1000 | > 10000 | 1.1 | IC50 (DRB1*0401 (DR4w4); read-out: Binding Capacity (IC 50% nM) DR1,4,7 DR4w4): > 1000 nM; IC50 (DRB1*0701 (DR7); [30]): < 1000 nM; IC50 (DRB1*1501 (DR2w2b); [9]): < 1000 nM; IC50 (DRB5*0101 (DR2w2a); [25]): < 1000 nM; IC50 (DRB1*0405 (DR4w15); [26]): < 1000 nM; IC50 (DRB1*1101 (DR5w11); [27]): 6250 nM; IC50 (DRB1*0901 (DR9); [31]): < 1000 nM; IC50 (DRB1*1201 (DR5w12); Binding Capacity (IC 50% nM) Other Alleles DR5w12): < 1000 nM
4 | CC(C)C[C@H](NC(=O)CNC(=O)[C@H](C)NC(=O)[C@H](CC(C)C)NC(=O)[C@@H](NC(=O)[C@H](CO)NC(=O)[C@@H](NC(=O)[C@H](C)NC(=O)[C@H](CC(C)C)NC(=O)[C@H](CCCCN)NC(=O)[C@H](Cc1ccc(O)cc1)NC(=O)[C@@H](N)CCCCN)[C@@H](C)O)C(C)C)C(=O)N[C@@H](CC(C)C)C(=O)NCC(=O)N[C@@H](CC(N)=O)C(=O)O [Peptide F107.09] | – | < 1000 | < 1000 | – | – | – | – | – | – | – | – | – | – | – | – | > 10000 | > 1000 | > 1000 | > 10000 | – | IC50 (DRB1*0701 (DR7); [30]): < 1000 nM; IC50 (DRB1*1501 (DR2w2b); [24]): > 1000 nM; IC50 (DRB5*0101 (DR2w2a); [25]): < 1000 nM; IC50 (DRB1*0405 (DR4w15); [26]): < 1000 nM; IC50 (DRB1*1101 (DR5w11); [28]): < 1000 nM; IC50 (DRB1*1302 (DR6w19); Binding Capacity (IC 50% nM) Other Alleles DR6w19): < 1000 nM; IC50 (DRB1*0802 (DR8w2); [29]): < 1000 nM; IC50 (DRB1*0901 (DR9); [31]): < 1000 nM
5 | WLFPRFKFVWVTYASW [Peptide 1136.44.01] | 526 | < 1000 | < 1000 | 780 | > 10000 | > 1000 | > 10000 | 6550 | > 1000 | > 10000 | > 1000 | 6360 | > 1000 | > 10000 | > 1000 | > 10000 | > 1000 | > 1000 | > 10000 | > 10000 | IC50 (DRB1*1501 (DR2w2b); [24]): > 1000 nM; IC50 (DRB5*0101 (DR2w2a); [11]): > 1000 nM; IC50 (DRB1*0405 (DR4w15); [13]): > 1000 nM; IC50 (DRB1*1101 (DR5w11); [27]): 4000 nM
